≈ marks a conversion by molar mass, not a printed value.
These compounds were tested on Mycobacterium smegmatis (ATCC607) (assay: In-vitro anti-bacterial activity against strain M. Smegmatis ATCC607). Conditions: 90% inhibitory concentration for bacterial growth, 48 hours, Alamar Blue fluorescence.
Format: cell-based
In short: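 IC90 (μg/ml) derived from Alamar Blue fluorescence (530/590 nm) after 48 h growth at 37 °C under 5% CO2. About 250 CFU per well in Mueller-Hinton broth faced five-fold serial compound dilutions in BSA-containing wells.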

Row | Structure (SMILES) | IC90 MSM 607
1 | COc1nc2ccc(SC)cc2cc1C(c1ccc(Cl)cc1)C1(O)CCNCC1Cc1cccc(F)c1 (centres unmarked) [Compound 285] | >13.49 µg/mL
2 | COc1nc2ccc(SC)cc2cc1C(c1ccc(Cl)cc1)C1(O)CCNCC1Cc1cccc(F)c1 (centres unmarked) [Compound 286] | 2.12 µg/mL (≈ 3.95 µM)
3 | COc1nc2ccc(SC)cc2cc1C(c1ccc(Cl)cc1)C1(O)CCNC(CC2CCCCC2)C1 (centres unmarked) [Compound 288] | 3.41 µg/mL (≈ 6.49 µM)
4 | COc1nc2ccc(SC)cc2cc1C(c1ccc(Cl)cc1)C1(O)CCNC(CC2CCCCC2)C1 (centres unmarked) [Compound 289] | 3.36 µg/mL (≈ 6.4 µM)
5 | COc1nc2ccc(SC)cc2cc1C(c1ccc(Cl)cc1)C1(O)CCNC(CC2CCCCC2)C1 (centres unmarked) [Compound 290] | 2.63 µg/mL (≈ 5.01 µM)
6 | COc1nc2ccc(S(C)(=O)=O)cc2cc1C(c1ccc(Cl)cc1)C1(O)CCNCC1Cc1cccc(F)c1 (centres unmarked) [Compound 292] | 5.69 µg/mL (≈ 10 µM)
7 | COc1nc2ccc(S(C)(=O)=O)cc2cc1C(c1ccc(Cl)cc1)C1(O)CCNCC1Cc1cccc(F)c1 (centres unmarked) [Compound 293] | 7.16 µg/mL (≈ 12.6 µM)
8 | COc1nc2ccc(S(C)(=O)=O)cc2cc1C(c1ccc(Cl)cc1)C1(O)CCNCC1Cc1cccc(F)c1 (centres unmarked) [Compound 294] | 14.30 µg/mL (≈ 25.1 µM)
9 | CSc1ccc2[nH]c(=O)c(C(c3ccc(Cl)cc3)C3(O)CCNC(CC4CCCCC4)C3)cc2c1 (centres unmarked) [Compound 295] | 3.43 µg/mL (≈ 6.71 µM)
10 | CSc1ccc2[nH]c(=O)c(C(c3ccc(Cl)cc3)C3(O)CCNC(CC4CCCCC4)C3)cc2c1 (centres unmarked) [Compound 296] | 6.85 µg/mL (≈ 13.4 µM)
11 | CSc1ccc2[nH]c(=O)c(C(c3ccc(Cl)cc3)C3(O)CCNC(CC4CCCCC4)C3)cc2c1 (centres unmarked) [Compound 297] | 13.65 µg/mL (≈ 26.7 µM)
12 | CSc1ccc2[nH]c(=O)c(C(c3ccc(Cl)cc3)C3(O)CCNC(CC4CCCCC4)C3)cc2c1 (centres unmarked) [Compound 298] | 6.88 µg/mL (≈ 13.5 µM)
13 | Cc1cc(F)ccc1C1CC(O)(C(c2ccc(Cl)cc2)c2cc3cc(Cl)ccc3[nH]c2=O)CCN1 (centres unmarked) [Compound 303] | 5.47 µg/mL (≈ 10.7 µM)
14 | Cc1cc(F)ccc1C1CC(O)(C(c2ccc(Cl)cc2)c2cc3cc(Cl)ccc3[nH]c2=O)CCN1 (centres unmarked) [Compound 304] | 1.73 µg/mL (≈ 3.38 µM)
15 | COc1nc2ccc(S(C)(=O)=O)cc2cc1C(c1ccc(Cl)cc1)C1(O)CCNC(Cc2ccc(F)cc2F)C1 (centres unmarked) [Compound 305] | 18.76 µg/mL (≈ 32 µM)
16 | COc1nc2ccc(S(C)(=O)=O)cc2cc1C(c1ccc(Cl)cc1)C1(O)CCNC(Cc2ccc(F)cc2F)C1 (centres unmarked) [Compound 306] | 4.70 µg/mL (≈ 8.01 µM)
17 | CS(=O)(=O)c1ccc2[nH]c(=O)c(C(c3cccc(Cl)c3)C3(O)CCNC(Cc4ccc(F)cc4F)C3)cc2c1 (centres unmarked) [Compound 307] | >15.12 µg/mL
18 | CS(=O)(=O)c1ccc2[nH]c(=O)c(C(c3cccc(Cl)c3)C3(O)CCNC(Cc4ccc(F)cc4F)C3)cc2c1 (centres unmarked) [Compound 308] | 6.08 µg/mL (≈ 10.6 µM)
19 | CSc1ccc2[nH]c(=O)c(C(c3cccc(Cl)c3)C3(O)CCNC(Cc4ccc(F)cc4F)C3)cc2c1 (centres unmarked) [Compound 309] | 11.52 µg/mL (≈ 21.3 µM)
20 | CSc1ccc2[nH]c(=O)c(C(c3cccc(Cl)c3)C3(O)CCNC(Cc4ccc(F)cc4F)C3)cc2c1 (centres unmarked) [Compound 310] | 3.62 µg/mL (≈ 6.69 µM)
21 | CSc1ccc2[nH]c(=O)c(C(c3cccc(Cl)c3)C3(O)CCNC(Cc4ccc(F)cc4F)C3)cc2c1 (centres unmarked) [Compound 311] | 3.63 µg/mL (≈ 6.71 µM)
22 | CSc1ccc2[nH]c(=O)c(C(c3cccc(Cl)c3)C3(O)CCNC(Cc4ccc(F)cc4F)C3)cc2c1 (centres unmarked) [Compound 312] | 3.62 µg/mL (≈ 6.69 µM)

Same assay, conditions: Mycolicibacterium smegmatis, ATCC607, 48 h, 90% inhibitory concentration for bacterial growth, Alamar Blue fluorescence, read-out: IC90 MSM 607

Row | Structure (SMILES) | IC90
23 | COc1nc2ccc(SC)cc2cc1C(c1ccc(Cl)cc1)C1(O)CCNC(c2ccc(F)cc2C)C1 (centres unmarked) [Compound 242] | 1.2 µg/mL (≈ 2.23 µM)
24 | CSc1ccc2[nH]c(=O)c(C(c3ccc(Cl)cc3)C3(O)CCNC(c4ccc(F)cc4C)C3)cc2c1 (centres unmarked) [Compound 266] | 2.22 µg/mL (≈ 4.24 µM)
25 | CSc1ccc2[nH]c(=O)c(C(c3ccc(Cl)cc3)C3(O)CCNC(Cc4ccc(F)cc4)C3)cc2c1 (centres unmarked) [Compound 281] | 7.03 µg/mL (≈ 13.4 µM)

These compounds were tested on Staphylococcus aureus (ATCC29213) (assay: In-vitro anti-bacterial activity, microtitre plate assay, IC90 determination (non-mycobacterial strains)). Conditions: 90% inhibitory concentration for bacterial growth, 24 hours, resazurin fluorescence.
Format: cell-based
In short: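 Growth inhibition measured fluorometrically with resazurin (530/590 nm) after overnight 37 °C incubation under normal atmosphere. Bacteria added at roughly 100 TCID50 per well in Mueller-Hinton broth to five-fold compound dilution series; IC90 reported in μg/ml.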

Row | Structure (SMILES) | IC90 STA B29213
26 | COc1nc2ccc(SC)cc2cc1C(c1ccc(Cl)cc1)C1(O)CCNC(c2ccc(F)cc2C)C1 (centres unmarked) [Compound 242] | 1.51 µg/mL (≈ 2.81 µM)
27 | CSc1ccc2[nH]c(=O)c(C(c3ccc(Cl)cc3)C3(O)CCNC(Cc4ccc(F)cc4)C3)cc2c1 (centres unmarked) [Compound 281] | 3.53 µg/mL (≈ 6.75 µM)
28 | COc1nc2ccc(SC)cc2cc1C(c1ccc(Cl)cc1)C1(O)CCNCC1Cc1cccc(F)c1 (centres unmarked) [Compound 285] | >13.49 µg/mL
29 | COc1nc2ccc(SC)cc2cc1C(c1ccc(Cl)cc1)C1(O)CCNCC1Cc1cccc(F)c1 (centres unmarked) [Compound 286] | 4.22 µg/mL (≈ 7.86 µM)
30 | COc1nc2ccc(SC)cc2cc1C(c1ccc(Cl)cc1)C1(O)CCNC(CC2CCCCC2)C1 (centres unmarked) [Compound 288] | 4.29 µg/mL (≈ 8.17 µM)
31 | COc1nc2ccc(SC)cc2cc1C(c1ccc(Cl)cc1)C1(O)CCNC(CC2CCCCC2)C1 (centres unmarked) [Compound 289] | 4.23 µg/mL (≈ 8.05 µM)
32 | COc1nc2ccc(SC)cc2cc1C(c1ccc(Cl)cc1)C1(O)CCNC(CC2CCCCC2)C1 (centres unmarked) [Compound 290] | 2.35 µg/mL (≈ 4.47 µM)
33 | COc1nc2ccc(S(C)(=O)=O)cc2cc1C(c1ccc(Cl)cc1)C1(O)CCNCC1Cc1cccc(F)c1 (centres unmarked) [Compound 292] | 7.16 µg/mL (≈ 12.6 µM)
34 | COc1nc2ccc(S(C)(=O)=O)cc2cc1C(c1ccc(Cl)cc1)C1(O)CCNCC1Cc1cccc(F)c1 (centres unmarked) [Compound 293] | 7.16 µg/mL (≈ 12.6 µM)
35 | COc1nc2ccc(S(C)(=O)=O)cc2cc1C(c1ccc(Cl)cc1)C1(O)CCNCC1Cc1cccc(F)c1 (centres unmarked) [Compound 294] | 11.36 µg/mL (≈ 20 µM)
36 | CSc1ccc2[nH]c(=O)c(C(c3ccc(Cl)cc3)C3(O)CCNC(CC4CCCCC4)C3)cc2c1 (centres unmarked) [Compound 295] | 3.43 µg/mL (≈ 6.71 µM)
37 | CSc1ccc2[nH]c(=O)c(C(c3ccc(Cl)cc3)C3(O)CCNC(CC4CCCCC4)C3)cc2c1 (centres unmarked) [Compound 296] | 3.43 µg/mL (≈ 6.71 µM)
38 | CSc1ccc2[nH]c(=O)c(C(c3ccc(Cl)cc3)C3(O)CCNC(CC4CCCCC4)C3)cc2c1 (centres unmarked) [Compound 297] | 3.43 µg/mL (≈ 6.71 µM)
39 | CSc1ccc2[nH]c(=O)c(C(c3ccc(Cl)cc3)C3(O)CCNC(CC4CCCCC4)C3)cc2c1 (centres unmarked) [Compound 298] | 6.88 µg/mL (≈ 13.5 µM)
40 | Cc1cc(F)ccc1C1CC(O)(C(c2ccc(Cl)cc2)c2cc3cc(Cl)ccc3[nH]c2=O)CCN1 (centres unmarked) [Compound 304] | 3.45 µg/mL (≈ 6.75 µM)
41 | COc1nc2ccc(S(C)(=O)=O)cc2cc1C(c1ccc(Cl)cc1)C1(O)CCNC(Cc2ccc(F)cc2F)C1 (centres unmarked) [Compound 305] | 18.76 µg/mL (≈ 32 µM)
42 | COc1nc2ccc(S(C)(=O)=O)cc2cc1C(c1ccc(Cl)cc1)C1(O)CCNC(Cc2ccc(F)cc2F)C1 (centres unmarked) [Compound 306] | 4.70 µg/mL (≈ 8.01 µM)
43 | CS(=O)(=O)c1ccc2[nH]c(=O)c(C(c3cccc(Cl)c3)C3(O)CCNC(Cc4ccc(F)cc4F)C3)cc2c1 (centres unmarked) [Compound 307] | >15.12 µg/mL
44 | CS(=O)(=O)c1ccc2[nH]c(=O)c(C(c3cccc(Cl)c3)C3(O)CCNC(Cc4ccc(F)cc4F)C3)cc2c1 (centres unmarked) [Compound 308] | 7.65 µg/mL (≈ 13.3 µM)
45 | CSc1ccc2[nH]c(=O)c(C(c3cccc(Cl)c3)C3(O)CCNC(Cc4ccc(F)cc4F)C3)cc2c1 (centres unmarked) [Compound 309] | 14.50 µg/mL (≈ 26.8 µM)
46 | CSc1ccc2[nH]c(=O)c(C(c3cccc(Cl)c3)C3(O)CCNC(Cc4ccc(F)cc4F)C3)cc2c1 (centres unmarked) [Compound 310] | 3.62 µg/mL (≈ 6.69 µM)
47 | CSc1ccc2[nH]c(=O)c(C(c3cccc(Cl)c3)C3(O)CCNC(Cc4ccc(F)cc4F)C3)cc2c1 (centres unmarked) [Compound 311] | 7.24 µg/mL (≈ 13.4 µM)
48 | CSc1ccc2[nH]c(=O)c(C(c3cccc(Cl)c3)C3(O)CCNC(Cc4ccc(F)cc4F)C3)cc2c1 (centres unmarked) [Compound 312] | 3.62 µg/mL (≈ 6.69 µM)

Same assay, conditions: Staphylococcus aureus, ATCC29213, 24 h, 90% inhibitory concentration for bacterial growth, resazurin fluorescence, read-out: IC90 STA B29213

Row | Structure (SMILES) | IC90
49 | CSc1ccc2[nH]c(=O)c(C(c3ccc(Cl)cc3)C3(O)CCNC(c4ccc(F)cc4C)C3)cc2c1 (centres unmarked) [Compound 266] | 2.5 µg/mL (≈ 4.78 µM)
50 | Cc1cc(F)ccc1C1CC(O)(C(c2ccc(Cl)cc2)c2cc3cc(Cl)ccc3[nH]c2=O)CCN1 (centres unmarked) [Compound 303] | 6.88 µg/mL (≈ 13.5 µM)
